In ChEMBL document CHEMBL1201862, “PubChem BioAssay data set” (2004):
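Cultured in 96-well plates, cells were exposed to test compound for 48 hours across five concentrations. At the GI50, growth is halved.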 Calls of active or inactive are those of the source. Cut-off read from the data, not from the text of the source: active = GI50 up to about 1.1 µM and inactive = higher.

Columns and labels:
Assay in all cases: inhibition of tumour cell growth, NCI panel, 48 h
SK-OV-3 = test system: SK-OV-3
SF-268 = test system: SF-268
CAKI-1 = test system: CAKI-1
M14 = test system: M14
HT-29 = test system: HT-29
HOP-62 = test system: HOP-62
MOLT-4 = test system: MOLT-4
SF-295 = test system: SF-295
ACHN = test system: ACHN
K562 = test system: K562
RXF 393 = test system: RXF 393
MDA-MB-435 = test system: MDA-MB-435
UACC-257 = test system: UACC-257
HL-60 = test system: HL-60
SK-MEL-5 = test system: SK-MEL-5
IGROV-1 = test system: IGROV-1
NCI-H23 = test system: NCI-H23
RPMI-8226 = test system: RPMI-8226
HCT-116 = test system: HCT-116
OVCAR-4 = test system: OVCAR-4

Measured: GI50

C/C(C=O)=C/[C@@]1(C)O[C@@H](C)[C@@](C)(O)[C@@H]1O
inactive: SK-OV-3 > 100 µM | SF-268 25.2 µM | CAKI-1 19.9 µM | M14 32.5 µM | HT-29 > 100 µM | HOP-62 63.1 µM | MOLT-4 5.62 µM | SF-295 41.1 µM | ACHN 24.5 µM | K562 7.94 µM | RXF 393 > 100 µM | MDA-MB-435 31 µM | UACC-257 22.1 µM | HL-60 > 100 µM | SK-MEL-5 64.6 µM | IGROV-1 > 100 µM | NCI-H23 33.3 µM | RPMI-8226 30.9 µM | HCT-116 93.1 µM | OVCAR-4 > 100 µM

CCOC(=O)c1c(-c2ccccc2)c(OC)cn1C
inactive: SK-OV-3 > 10 µM | SF-268 > 10 µM | CAKI-1 > 10 µM | M14 > 10 µM | HT-29 > 10 µM | HOP-62 > 10 µM | MOLT-4 > 10 µM | SF-295 > 10 µM | ACHN > 10 µM | K562 > 10 µM | RXF 393 > 10 µM | MDA-MB-435 > 10 µM | UACC-257 > 10 µM | HL-60 > 10 µM | SK-MEL-5 > 10 µM | IGROV-1 > 10 µM | NCI-H23 > 10 µM | RPMI-8226 > 10 µM | HCT-116 > 10 µM | OVCAR-4 > 10 µM

N#C/C=C\c1ccc(-c2cc(C(F)(F)F)cc(C(F)(F)F)c2)o1
inactive: SK-OV-3 30.3 µM | SF-268 25.9 µM | CAKI-1 35.3 µM | M14 56.4 µM | HT-29 94.4 µM | HOP-62 21.1 µM | MOLT-4 57.4 µM | SF-295 19.4 µM | ACHN > 100 µM | K562 42.1 µM | RXF 393 44.6 µM | MDA-MB-435 2.57 µM | UACC-257 > 100 µM | HL-60 17.7 µM | SK-MEL-5 14.9 µM | IGROV-1 47.2 µM | NCI-H23 13.3 µM | RPMI-8226 > 100 µM | HCT-116 35.4 µM | OVCAR-4 91.8 µM

COc1cc(CNC(=O)[C@H](Cc2ccc(O)cn2)NC(C)=O)cc(OC)c1
inactive: SK-OV-3 > 100 µM | SF-268 > 100 µM | CAKI-1 > 100 µM | M14 92.5 µM | HT-29 41 µM | HOP-62 > 100 µM | MOLT-4 57.8 µM | SF-295 > 100 µM | ACHN > 100 µM | K562 83 µM | RXF 393 > 100 µM | MDA-MB-435 > 100 µM | UACC-257 65.6 µM | HL-60 19.5 µM | SK-MEL-5 67 µM | IGROV-1 36.3 µM | NCI-H23 > 100 µM | RPMI-8226 29.5 µM | HCT-116 76.2 µM | OVCAR-4 > 100 µM
